Measurements taken from US12533348B2, “Ferroportin-inhibitors for the use in the treatment of transfusion-dependent beta-thalassemia (TDT)” (Vifor (International) AG, priority 2019, dated 2026).
Where “and” joins values, the source holds several entries; their conditions need not be identical. Equal entries are not always repeated. Entries after “also recorded” stand apart in the source; their conditions may differ.

Columns and labels:
[1] = test system: Hbb^th3/+ mouse model of β-thalassemia intermedia; assay: Combination study: erythroid differentiation stages in spleen by flow cytometry (Ter119/CD44/CD71); assay type: in vivo; details: for basophilic erythroblasts, frequency of parent / mature erythrocytes, frequency of parent / orthochromatic erythroblasts, frequency of parent / polychromatic erythroblasts, frequency of parent / pro-erythroblasts, frequency of parent: percent of parent Ter119+ spleen cells, female th3/+ mice, DFX 30 mg/kg QD, Fpn127 120 mg/kg QD p.o., end of study, mean
From the text: Distinct stages of erythroid cell differentiation in spleens of female mice were identified by flow cytometry (CANTOII cytometer, BD Biosciences) using PE-conjugated rat anti-mouse CD71 (transferrin receptor-1, eBioscience, Cat. 12-0711), APC-conjugated rat anti-mouse Ter119 (erythroid lineage marker, eBioscience, Cat. 17-5921) and APC-Cy7-conjugated rat anti-mouse CD44 (adhesion molecule that progressively decreases on the surface of developing erythroid cells, BioLegend. Cat. 103028) antibodies. Data were analyzed using FlowJo® software (FlowJo. LLC, version 10.1) Serum Parameters

[2] = test system: Hbb^th3/+ mouse model of β-thalassemia intermedia; assay: Combination study: hemoglobin (HemoCue photometer); assay type: in vivo; details: for Hb concentration: th3/+ mice, Fpn127 120 mg/kg QD p.o., mean
Protocol: One day after switching to lid a blood sample was taken by tail vein incision to determine the baseline Hb levels. Hb was measured using a HaemoCue® device. Hb was also measured on days 8, 15, and 22 in the morning before dosing. The animals were dosed p.o. D with 30 mg/kg DFX in 30% Kolliphor, 120 mg/kg Fpn127 in 0.5% C, or both for a total of 17 doses during the 23 days of study. 30% Kolliphor and 0.5% C were dosed as vehicles. The dose of DFX was administered at the beginning of the dark cycle (active phase) at 9:00 followed by 3 h of access to lid. Then, mice were dosed with Fpn127 (or 0.5% C) and were given access to sd for a 6 h period before switched back to lid. On the dosing was paused and mi had access to lid ad libitum.
Hb was measured on days 1, 8, 15 and 22. Individual Hb values were determined at the starting day of the experiment (day 1) and weekly thereafter during the experimental phase in the morning before the first daily dose. A blood sample was taken by tail vein incision and Hb was measured using a HemoCue® DM201 Hb photometer.

[3] = Half-life of orally administered Fpn127 in rodents; details: in vivo, po
[4] = test system: rats; assay: Serum iron after a single oral dose in rats; assay type: in vivo, rat; details: single oral dose of 100 mg/kg in rats
[5] = test system: C57BL/6 WT mice; assay: Serum iron in C57BL/6 WT mice (previous study); assay type: in vivo, mouse; details: C57BL/6 WT mice dosed with 120 mg/kg for 20 h
[6] = test system: Hbb^th3/+ mice; assay: NTBI in plasma after blood transfusion (BT) in Hbb^th3/+ mice (Fe-NTA colorimetric assay); assay type: in vivo, mouse; details: single oral dose 120 mg/kg 30 min before BT, 3 h post BT (FIG. 13)
Protocol: In order to establish the kinetics of NTBI generation in Hbb th3/+ mice (B6.129P2-Hbb-b1tm1Unc Hbb-b2tm1Unc/J, #002683) following blood transfusion (BT) pilot experiments were performed. The wild-type (We) littermates of Hbbth3/+ were used as blood donors for transfusions. Peripheral blood was collected from terminally anesthetized WT mice via retro-orbital route from 3-5 female mice and seven parts of blood were mixed with one part of 14% citrate-phosphate-dextrose adenine and stored at 4° C. until the transfusion (24 h or 15 days). The donor blood was pre-warmed to 37° C. prior to the transfusion. […]
NTBI was measured in murine plasma samples by a Fe-Nitrilotriacetate (NTA)-based assay, adapted from a protocol published by Gosriwatana I et al. 1999 (Quantification of non-transferrin-bound iron in the presence of unsaturated transferrin. Gosriwatana I, Loreal O. Lu S, Brissot P, Porter J, Hider R C. Quantification of non-transferrin-bound iron in the presence of unsaturated transferrin. Anal Biochem. 1999 Sep. 10; 273(2):212-20. First, a solution of 800 mM Nitrilotriacetate acid (NTA) trisodium (Sigma, 72565) and a solution of 800 mM NTA disodium (Sigma, N0128) were prepared and then mixed together to obtain a solution at pH 7.0. […] After 30 minutes of incubation at room temperature, samples were measured in a plate reader (Biotec) at 537 nm.

[7] = test system: Hbb^th3/+ mice; assay: ROS levels in mature RBCs of Hbb^th3/+ mice, oral dosing 60 mg/kg twice daily, no BT; assay type: in vivo, mouse
[8] = DFX 30 mg/kg QD, day 1 (before dosing), all animals
[9] = DFX 30 mg/kg QD, day 1 (before dosing), females
[10] = DFX 30 mg/kg QD, day 1 (before dosing), males
[11] = DFX 30 mg/kg QD, day 8, all animals
[12] = DFX 30 mg/kg QD, day 8, females
[13] = DFX 30 mg/kg QD, day 15, all animals
[14] = DFX 30 mg/kg QD, day 15, females
[15] = DFX 30 mg/kg QD, day 22, all animals
[16] = DFX 30 mg/kg QD, day 22, females

Structure (SMILES) | basophilic erythroblasts, frequency of parent [1] [%] | mature erythrocytes, frequency of parent [1] [%] | orthochromatic erythroblasts, frequency of parent [1] [%] | polychromatic erythroblasts, frequency of parent [1] [%] | pro-erythroblasts, frequency of parent [1] [%] | Hb concentration [2, 8] [g/L] | Hb concentration [2, 9] | Hb concentration [2, 10] | Hb concentration [2, 11] [g/L] | Hb concentration [2, 12] [g/L] | Hb concentration ([2]; DFX 30 mg/kg QD, day 8, males) [g/L] | Hb concentration [2, 13] [g/L] | Hb concentration [2, 14] [g/L] | Hb concentration ([2]; DFX 30 mg/kg QD, day 15, males) [g/L] | Hb concentration [2, 15] [g/L] | Hb concentration [2, 16] [g/L] | Hb concentration ([2]; DFX 30 mg/kg QD, day 22, males) [g/L] | other results
O=C(O)c1ccc(-n2nc(-c3ccccc3O)nc2-c2ccccc2O)cc1 [DFX, deferasirox, reference compound] | 8.21 | 32.35 | 23.48 | 23.90 | 3.29 | 84 | 86 ± 2 g/L and 86 g/L | 82 ± 3 g/L and 82 g/L | 98 | 99 | 96 | 81 | 82 | 80 | 86 | 85 | 88 | 
O=C(NCc1ncccc1F)c1coc(CCNCCc2nc3ccccc3[nH]2)n1 [Fpn127] | 4.94 | 53.52 | 14.65 | 9.44 | 1.74 | 85 | 85 ± 4 g/L and 85 g/L | 85 ± 6 g/L and 85 g/L | 92 | 93 | 90 | 96 | 99 | 93 | 98 | 101 | 95 | half-life [3]: ~2 h; duration of reduction in serum iron [4]: at least 8 h; RBC percentage in spleen ([1]; Hbbth3/+ mice (FIG. 9)): increased; percentage of immature erythroid cells in spleen ([1]; Hbbth3/+ mice (FIG. 9)): markedly reduced; serum iron in WT mice [5]: restored to the baseline levels; change of Hb levels compared to vehicle-treated mice ([2]; Hbb^th3/+ mice, by the study end, Fpn127 120 mg/kg QD, DFX 30 mg/kg QD): 13 g/L; Hb levels during the study duration ([2]; Hbbth3/+ animals (FIG. 6)): increased with time; NTBI in plasma after blood transfusion [6]: prevents release; also recorded: prevented the increase of NTBI; ROS levels in RBCs ([7]; 15 days of oral dosing 60 mg/kg twice daily (FIG. 2B), 60 mg/kg): decreased ROS levels; also recorded: further decreased; ROS levels in RBCs ([7]; day 8 of oral dosing 60 mg/kg twice daily (FIG. 2A)): decreased ROS levels
